What follows are compounds tested against T1, hNLRP3 (Homo sapiens, UniProt Q96P20) (assay: IL-1β production in PMA-differentiated THP-1 cells stimulated with gramicidin (hTHP-1 assay)). Details: read-out: NLRP3 Antagonist, hNLRP3 (THP-1, IL-1b) Normalized: GeoMean IC50.
T1 construct: THP-1 cells were purchased from the American Type Culture Collection; host or cells: THP-1 cells, PMA-differentiated, stimulated with gramicidin
T1 sequence (Q96P20 whole entry): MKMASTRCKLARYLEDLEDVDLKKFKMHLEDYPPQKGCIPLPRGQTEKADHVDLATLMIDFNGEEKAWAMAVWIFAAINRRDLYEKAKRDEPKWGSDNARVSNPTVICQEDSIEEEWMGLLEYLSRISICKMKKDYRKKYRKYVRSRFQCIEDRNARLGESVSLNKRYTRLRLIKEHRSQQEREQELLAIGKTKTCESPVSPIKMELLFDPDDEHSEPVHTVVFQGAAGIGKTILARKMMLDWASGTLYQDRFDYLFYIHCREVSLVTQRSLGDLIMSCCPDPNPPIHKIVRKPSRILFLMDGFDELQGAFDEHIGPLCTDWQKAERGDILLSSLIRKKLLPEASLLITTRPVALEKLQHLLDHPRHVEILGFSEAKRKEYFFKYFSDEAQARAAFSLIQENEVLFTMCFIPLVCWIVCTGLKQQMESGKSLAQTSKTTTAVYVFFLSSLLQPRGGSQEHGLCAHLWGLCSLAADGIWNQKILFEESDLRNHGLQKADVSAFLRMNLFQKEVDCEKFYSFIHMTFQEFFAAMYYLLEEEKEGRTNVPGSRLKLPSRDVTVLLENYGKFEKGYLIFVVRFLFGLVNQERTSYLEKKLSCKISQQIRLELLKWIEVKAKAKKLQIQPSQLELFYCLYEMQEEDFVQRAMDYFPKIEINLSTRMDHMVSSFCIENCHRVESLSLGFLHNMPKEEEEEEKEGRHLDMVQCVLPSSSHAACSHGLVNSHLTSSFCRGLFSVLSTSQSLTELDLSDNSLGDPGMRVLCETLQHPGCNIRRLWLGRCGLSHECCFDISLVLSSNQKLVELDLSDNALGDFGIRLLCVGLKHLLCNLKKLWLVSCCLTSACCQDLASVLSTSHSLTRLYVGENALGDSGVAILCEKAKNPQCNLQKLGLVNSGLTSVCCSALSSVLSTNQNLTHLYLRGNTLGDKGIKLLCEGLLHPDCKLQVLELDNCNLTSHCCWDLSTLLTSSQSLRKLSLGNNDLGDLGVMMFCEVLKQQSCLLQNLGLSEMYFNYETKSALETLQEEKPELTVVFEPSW
Format: cell-based
Method: Procedure 1: IL-1β Production in PMA-Differentiated THP-1 Cells Stimulated with Gramicidin.
THP-1 cells were purchased from the American Type Culture Collection and sub-cultured according to instructions from the supplier. […] Prior to the experiment, compounds were dissolved in dimethyl sulfoxide (DMSO) to generate a 30 mM stock. […] DMSO was backfilled in the plate to achieve a final DMSO assay concentration of 0.37%. The plate was then sealed and stored at room temperature until required.
THP-1 cells were treated with PMA (Phorbol 12-myristate 13-acetate) (20 ng/ml) for 16-18 hours. On the day of the experiment the media was removed and adherent cells were detached with trypsin for 5 minutes.
Procedure 2: IL-1β Production in PMA-Differentiated THP-1 Cells Stimulated with Gramicidin.
THP-1 cells were purchased from the American Type Culture Collection and sub-cultured according to instructions from the supplier. […] Prior to the experiment THP-1 were treated with PMA (Phorbol 12-myristate 13-acetate) (20 ng/ml) for 16-18 hours. Compounds were dissolved in dimethyl sulfoxide (DMSO) to generate a 30 mM stock. On the day of the experiment the media was removed and adherent cells were detached with trypsin for 5 minutes. […] Final DMSO concentration was at 0.37%. Cells were incubated with compounds for 1 hour and then stimulated with gramicidin (5 μM) (Enzo) for 2 hours. Plates were then centrifuged at 340 g for 5 min. Cell free supernatant (40 μL) was collected using a 96-channel PlateMaster (Gilson) and the production of IL-1β was evaluated by HTRF (cisbio).
1. Experimental procedure
1.2 Compound Preparation • Prepare the 3-fold serial dilution of the compounds with DMSO in a 384-well LDV Microplate using TECAN EVO system to generate the compound source plate with 10 concentrations. Top concentration is 30 mM. FIG. 5 depicts the layout of the microplate.
FIG. 5 depicts the layout of the plates: HC: 100 μM CRID3 (MCC950)+5 μM gramicidin LC: 5 μM Gramicidin.
1.5 IL-1β Detection • 1) Homogenize the 5× diluent #5 with a vortex and add 1 volume of stock solution in 4 volumes of distilled water. • 2) Thaw 20× stock solution of anti-IL1β-Cryptate-antibody and anti-IL1β XL-antibody. […] 2. Data Analysis: • 1.
Work on `CC(C)(O)c1ccc2c(c1)S(=O)(=NC(=O)Nc1c3c(cc4c1CCC4)CCC3)NC2=O` (racemic) [Compound 127, 1-(1,2,3,5,6,7-hexahydro-s-indacen-4-yl)-3-[6-(2-hydroxypropan-2-yl)-1,3-dioxo-2,3-dihydro-1-^λ-6,2-benzothiazol-1-ylidene]urea] yielded an IC50 of 0.2 to 1 µM.
With `O=C(N=S1(=O)NC(=O)c2ccccc21)Nc1c2c(cc3c1CCC3)CCC2` (racemic) [Compound 129, 3-(1,3-dioxo-2,3-dihydro-1-^λ-6,2-benzothiazol-1-ylidene)-1-(1,2,3,5,6,7-hexahydro-s-indacen-4-yl)urea] the IC50 was 1 to 5 µM.
Work on `CC1(C)CS(=O)(=NC(=O)Nc2c3c(cc4c2CCC4)CCC3)NC1=O` (single isomer, unassigned) [Compound 102a, (S or R)-1-(4,4-dimethyl-1-oxido-3-oxo-1l6-isothiazolidin-1-ylidene)-3-(1,2,3,5,6,7-hexahydro-s-indacen-4-yl)urea] yielded an IC50 of 0.2 to 1 µM.
`CC1(C)CS(=O)(=NC(=O)Nc2c3c(cc4c2CCC4)CCC3)NC1=O` (single isomer, unassigned) [Compound 102b, (R or S)-1-(4,4-dimethyl-1-oxido-3-oxo-1l6-isothiazolidin-1-ylidene)-3-(1,2,3,5,6,7-hexahydro-s-indacen-4-yl)urea] showed an IC50 of 5 to 30 µM.
`O=C(N=S1(=O)NC(=O)c2ccc(Br)cc21)Nc1c2c(cc3c1CCC3)CCC2` (single isomer, unassigned) [Compound 103a, (R or S)-1-(6-bromo-1-oxido-3-oxo-2,3-dihydro-1l4-benzo[d]isothiazol-1-ylidene)-3-(1,2,3,5,6,7-hexahydro-s-indacen-4-yl)urea] was tested, and the IC50 was over 30 µM.
In the case of `O=C(N=S1(=O)NC(=O)c2ccc(Br)cc21)Nc1c2c(cc3c1CCC3)CCC2` (single isomer, unassigned) [Compound 103b, (S or R)-1-(6-bromo-1-oxido-3-oxo-2,3-dihydro-1l4-benzo[d]isothiazol-1-ylidene)-3-(1,2,3,5,6,7-hexahydro-s-indacen-4-yl)urea], the IC50 is reported as 5 to 30 µM.
`CC(C)c1cc2c(c(C(C)C)c1CC(=O)N=S1(=O)NC(=O)c3ccc(C(C)(C)O)cc31)COC2` (single isomer, unassigned) [Compound 104a, (S or R)-2-(4,6-diisopropyl-1,3-dihydroisobenzofuran-5-yl)-N-(6-(2-hydroxypropan-2-yl)-1-oxido-3-oxo-2,3-dihydro-1l4-benzo[d]isothiazol-1-ylidene)acetamide] was tested, and the IC50 was over 30 µM.
For `CC(C)(O)c1ccc2c(c1)S(=O)(=NC(=O)Nc1c3c(nc(C4CC4)c1C1CC1)CCC3)NC2=O` (single isomer, unassigned) [Compound 106a, 1(R or S)-1-(2,3-dicyclopropyl-6,7-dihydro-5H-cyclopenta[b]pyridin-4-yl)-3-(6-(2-hydroxypropan-2-yl)-1-oxido-3-oxo-2,3-dihydro-1l4-benzo[d]isothiazol-1-ylidene)urea], the IC50 was 1 to 5 µM.
`CC(C)(O)c1ccc2c(c1)S(=O)(=NC(=O)Nc1c3c(nc(C4CC4)c1C1CC1)CCC3)NC2=O` (single isomer, unassigned) [Compound 106b, 1(S or R)-1-(2,3-dicyclopropyl-6,7-dihydro-5H-cyclopenta[b]pyridin-4-yl)-3-(6-(2-hydroxypropan-2-yl)-1-oxido-3-oxo-2,3-dihydro-1l4-benzo[d]isothiazol-1-ylidene)urea] showed an IC50 of over 30 µM.
Compound `CN1Cc2ccccc2S1(=O)=NC(=O)Nc1c2c(cc3c1CCC3)CCC2` (single isomer, unassigned) [Compound 107a] has an IC50 of over 30 µM.
Compound `Cc1c(C(F)(F)F)nc2c(c1NC(=O)N=S1(=O)NC(=O)c3ccc(C(C)(C)O)cc31)CCC2` (single isomer, unassigned) [Compound 108a, (R or S)-1-(6-(2-hydroxypropan-2-yl)-1-oxido-3-oxo-2,3-dihydro-1l4-benzo[d]isothiazol-1-ylidene)-3-(3-methyl-2-(trifluoromethyl)-6,7-dihydro-5H-cyclopenta[b]pyridin-4-yl)urea] has an IC50 of 0.2 to 1 µM.
`Cc1c(C(F)(F)F)nc2c(c1NC(=O)N=S1(=O)NC(=O)c3ccc(C(C)(C)O)cc31)CCC2` (single isomer, unassigned) [Compound 108b, (S or R)-1-(6-(2-hydroxypropan-2-yl)-1-oxido-3-oxo-2,3-dihydro-1l4-benzo[d]isothiazol-1-ylidene)-3-(3-methyl-2-(trifluoromethyl)-6,7-dihydro-5H-cyclopenta[b]pyridin-4-yl)urea] gave an IC50 of over 30 µM.
For `CC(C)(O)c1ccc2c(c1)S(=O)(=NC(=O)Nc1c3c(cc4c1CC4)CCC3)NC2=O` (single isomer, unassigned) [Compound 112a, (R or S)-1-(6-(2-hydroxypropan-2-yl)-1-oxido-3-oxo-2,3-dihydro-1l4-benzo[d]isothiazol-1-ylidene)-3-(2,4,5,6-tetrahydro-1H-cyclobuta[f]inden-3-yl)urea], the IC50 was 0.04 to 0.2 µM.
`CC(C)(O)c1ccc2c(c1)S(=O)(=NC(=O)Nc1c3c(cc4c1CC4)CCC3)NC2=O` (single isomer, unassigned) [Compound 112b, (S or R)-1-(6-(2-hydroxypropan-2-yl)-1-oxido-3-oxo-2,3-dihydro-1l4-benzo[d]isothiazol-1-ylidene)-3-(2,4,5,6-tetrahydro-1H-cyclobuta[f]inden-3-yl)urea] showed an IC50 of 1 to 5 µM.
With `O=C1CCCS(=O)(=NC(=O)Nc2c3c(cc4c2CCC4)CCC3)N1` (single isomer, unassigned) [Compound 113a, (S or R)-1-(1,2,3,5,6,7-hexahydro-s-indacen-4-yl)-3-(1-oxido-3-oxo-1l6,2-thiazinan-1-ylidene)urea] the IC50 was 0.2 to 1 µM.
For `CC(C)(O)c1ccc2c(c1)S(=O)(=NC(=O)Cc1c3c(cc4c1CCC4)CCC3)NC2=O` (single isomer, unassigned) [Compound 115a, (S or R)-2-(1,2,3,5,6,7-hexahydro-s-indacen-4-yl)-N-(6-(2-hydroxypropan-2-yl)-1-oxido-3-oxo-2,3-dihydro-1l4-benzo[d]isothiazol-1-ylidene)acetamide], the IC50 was 5 to 30 µM.
For `O=C(N=S1(=O)CCCN1)Nc1c2c(cc3c1CCC3)CCC2` (single isomer, unassigned) [Compound 119a, (R or S)-1-(1,2,3,5,6,7-hexahydro-s-indacen-4-yl)-3-(1-oxido-1l6-isothiazolidin-1-ylidene)urea], the IC50 was 5 to 30 µM.
`CC(C)(O)c1ccc2c(c1)C(=O)NS2(=O)=NC(=O)Nc1c2c(cc3c1CCC3)CCC2` (single isomer, unassigned) [Compound 121a, (R or S)-1-(1,2,3,5,6,7-hexahydro-s-indacen-4-yl)-3-(5-(2-hydroxypropan-2-yl)-1-oxido-3-oxo-2,3-dihydro-1l4-benzo[d]isothiazol-1-ylidene)urea] showed an IC50 of 0.2 to 1 µM.
For `CC(C)(O)c1ccc2c(c1)C(=O)NS2(=O)=NC(=O)Nc1c2c(cc3c1CCC3)CCC2` (single isomer, unassigned) [Compound 121b, (S or R)-1-(1,2,3,5,6,7-hexahydro-s-indacen-4-yl)-3-(5-(2-hydroxypropan-2-yl)-1-oxido-3-oxo-2,3-dihydro-1l4-benzo[d]isothiazol-1-ylidene)urea], the IC50 was 5 to 30 µM.
`CC(C)(O)c1ccc2c(c1)S(=O)(=NC(=O)Nc1c3c(cc4c1CCC4)CCC3)NC2=O` (single isomer, unassigned) [Compound 127a, (R or S)-1-(1,2,3,5,6,7-hexahydro-s-indacen-4-yl)-3-(6-(2-hydroxypropan-2-yl)-1-oxido-3-oxo-2,3-dihydro-1l4-benzo[d]isothiazol-1-ylidene)urea] showed an IC50 of 0.04 to 0.2 µM.
For `CC(C)(O)c1ccc2c(c1)S(=O)(=NC(=O)Nc1c3c(cc4c1CCC4)CCC3)NC2=O` (single isomer, unassigned) [Compound 127b, (S or R)-1-(1,2,3,5,6,7-hexahydro-s-indacen-4-yl)-3-(6-(2-hydroxypropan-2-yl)-1-oxido-3-oxo-2,3-dihydro-1l4-benzo[d]isothiazol-1-ylidene)urea], the IC50 was 5 to 30 µM.
`O=C(N=S1(=O)NC(=O)c2ccccc21)Nc1c2c(cc3c1CCC3)CCC2` (single isomer, unassigned) [Compound 129a, 3-[(1R or 1S)-1,3-dioxo-2,3-dihydro-1-^λ-6,2-benzothiazol-1-ylidene]-1-(1,2,3,5,6,7-hexahydro-s-indacen-4-yl)urea] was tested, and the IC50 was 0.2 to 1 µM.
For `O=C(N=S1(=O)NC(=O)c2ccccc21)Nc1c2c(cc3c1CCC3)CCC2` (single isomer, unassigned) [Compound 129b, 3-[(1S or 1R)-1,3-dioxo-2,3-dihydro-1-^λ-6,2-benzothiazol-1-ylidene]-1-(1,2,3,5,6,7-hexahydro-s-indacen-4-yl)urea], the IC50 was 5 to 30 µM.
